Columns and labels:
[1] = In vitro cytotoxicity assay (MTT cell viability) in HepG2 cells; type: cell-based, human; conditions: human
Method: To evaluate antiviral selectivity, the cytotoxic activity of each compound was determined using a standard cell viability assay performed on the parental HepG2 cell line. Cell viability was determined by measuring the conversion of 3-(4,5-dimethylthiazol-2-yl)-2,5-diphenyltetrazolium bromide (MTT) to the insoluble formazan salt crystal that occurs in live cells. Briefly, HepG2 cells were seeded in 96-well plates at a density of 20,000 cells per well in EMEM+10% FBS (complete growth medium) and allowed to adhere overnight in a 37° C., 5% CO2 humidified incubator. The next day, test agents were prepared by performing 8 half-log10 serial dilutions in 100% DMSO at 200× the final desired concentration in the assay. Compounds were tested over a range of concentrations from 30 μM to 1.0 nM in the assay. HepG2 cells were incubated in the presence of various concentrations of CAMs for 7 days in a 37° C., 5% CO2 humidified incubator. At the completion of the 7-day incubation period, MTT reagent was added to each well and the mixture was incubated for an additional 3-4 hours. At the completion of the incubation period, all wells were aspirated to remove the culture medium. The formazan crystals were solubilized from the cell monolayers with 100% DMSO. Plates were briefly mixed on an orbital shaker and absorbance was measured at 492 nm using a Perkin-Elmer EnVision multi-label plate reader. All absorbance values were converted to a percentage of the signal obtained from the vehicle treated controls. Absorbance values at 492 nm are directly proportional to the number of viable cells present in the sample. A CC50 value (cytotoxic concentration that results in loss of 50% cell viability) was calculated from the dose-response curve by 4-parameter, non-linear regression analysis using the GraphPad Prism software. The positive control compound, staurosporine, reduced the viability of HepG2 cells in a dose-dependent manner (CC50=100 nM).

[2] = system: HBV replication in HepAD38 cells; test: Anti-HBV replication assay in HepAD38 cells (QPCR of extracellular HBV DNA); type: cell-based, HBV (genotype D, serotype ayw); conditions: Hepatitis B virus, 168 h, 7 days incubation, extracellular HBV DNA by QPCR, read-out: Anti-HBV EC50
Method: The anti-HBV activity of the Capsid Assembly Modulators (CAMs) was evaluated in a cell based assay utilizing the human hepatoma cell line HepAD38 (Ladner, S K., et al., 1998). HepAD38 cells were derived from the parental line, HepG2, that were stably transfected with a construct containing an HBV genome (genotype D, serotype ayw) under the control of a tetracycline repressible CMV promoter. Upon removal of tetracycline, viral pre-genomic RNA (pgRNA) and mRNAs are expressed and infectious viral particles are assembled and secreted into the culture medium providing a reliable, robust system to measure multiple steps of the HBV life cycle. Disruption of capsid formation results in reduced levels of DNA-containing virus particles that are released into the culture supernatant. To quantify the effect of CAMs on HBV replication, we developed a sensitive QPCR-based assay that measures extracellular HBV DNA levels upon treatment of HepAD38 cells with various concentrations of test compounds.
HepAD38 cells were maintained in DMEM/F12 medium containing 10% FBS, 400 μg/mL G418 and 0.3 μg/mL tetracycline (tet+ media) to maintain repression of HBV replication. To evaluate each compound, HepAD38 cells were seeded into 24-well collagen coated culture plates (Corning BioCoat) at a density of 200,000 cells per well in 1 mL of medium without tetracycline (tet-media) and allowed to adhere overnight at 37° C., 5% CO2 in a humidified incubator. The following day, media was refreshed and a dose range of each compound was prepared by performing 1 log10 serial dilutions in 100% DMSO at 200× the desired assay concentration. Dilutions were then added to the cells resulting in a final dose range of 1 μM to 10 μM and the plates were returned to the incubator. Following 7 days of incubation, culture supernatants were harvested and HBV DNA levels were evaluated by QPCR and compared to the vehicle treated control wells (i.e. DMSO alone).
To quantify HBV DNA levels, cell culture supernatants were diluted 1:10 in sterile, nuclease-free water (Gibco). The diluted supernatants were subsequently added to a PCR master mix containing 1× Roche Light Cycler Master Mix, 0.5 μM forward primer, 0.5 μM reverse primer (Fwd: 5′-[…] (SEQ ID NO 1); Rev: 5′-[…] (SEQ ID NO 2)), 0.2 μM Roche Universal Probe Library Probe 25. The volume was brought to 20 μL with nuclease-free water and amplification of the HBV target sequence was performed using a Roche LightCycler 480 QPCR instrument. PCR extended out to 45 cycles with each cycle consisting of a denaturation step at 95° C. for 10 sec., followed by an annealing step at 60° C. for 10 sec. and a brief extension step at 72° C. for 1 sec.
Extracellular HBV DNA levels, expressed in copies/mL, were determined by comparison to a standard curve (10^2-10^9 copies/mL) using the Roche LightCycler analysis software. These values were subsequently converted to percent inhibition of HBV replication by dividing the HBV DNA levels in the experimental samples with those obtained from the vehicle control (˜1-2×10^5 copies/mL). Potency, expressed as an EC50 (the effective concentration required to inhibit 50% of HBV replication), was calculated from the dose-response curve using a 4-parameter non-linear regression analysis (GraphPad Prism). The nucleoside analog inhibitor entecavir was used as a positive control to validate each assay run. The EC50 value of entecavir in the HepAD38 assay was 0.5 nM, as previously reported in the literature.

SMILES | CC50 at 7 days [1] | EC50 [2]
Cc1cc(NC(=O)c2c(C)c(C(=O)C(=O)NCC(C)(C)O)n(CCF)c2C)ccc1F [Example 178, N-(4-fluoro-3-methylphenyl)-1-(2-fluoroethyl)-5-(2-((2-hydroxy-2-methylpropyl)amino)-2-oxoacetyl)-2,4-dimethyl-1H-pyrrole-3-carboxamide] | 5000 to 30000 nM | 50 to 499 nM
Cc1noc(C2(NC(=O)C(=O)c3c(C)c(C(=O)Nc4cnc(F)c(C)c4)c(C)n3C)CC2)n1 [Example 160, N-(6-fluoro-5-methylpyridin-3-yl)-1,2,4-trimethyl-5-(2-((1-(3-methyl-1,2,4-oxadiazol-5-yl)cyclopropyl)amino)-2-oxoacetyl)-1H-pyrrole-3-carboxamide] | > 30000 nM | 50 to 499 nM
O=C(N[C@H]1C[C@H](O)C1)C(=O)c1c(Cl)c(C(=O)Nc2ccc(F)c(F)c2)c2n1CCC2 [Example 551, 6-chloro-N-(3,4-difluorophenyl)-5-(2-(((1r,3r)-3-hydroxycyclobutyl)amino)-2-oxoacetyl)-2,3-dihydro-1H-pyrrolizine-7-carboxamide] | > 30000 nM | 50 to 499 nM
Cc1c(C(=O)Nc2ccnc(F)c2)c(C)n(C)c1C(=O)C(=O)N[C@H]1CCC[C@@H]1O [Example 134, N-(2-fluoropyridin-4-yl)-5-(2-(((1S,2S)-2-hydroxycyclopentyl)amino)-2-oxoacetyl)-1,2,4-trimethyl-1H-pyrrole-3-carboxamide] | > 30000 nM | 50 to 499 nM
Cc1c(C(=O)Nc2ccc(F)c(C#N)c2)c2n(c1C(=O)C(=O)NC(C)(C)C)CCCC2 [Example 435, 3-(2-(tert-butylamino)-2-oxoacetyl)-N-(3-cyano-4-fluorophenyl)-2-methyl-5,6,7,8-tetrahydroindolizine-1-carboxamide] | 5000 to 30000 nM | > 1000 nM
Cc1cc(NC(=O)c2c(C)c(C(=O)C(=O)N[C@@H]3CCCN(S(C)(=O)=O)C3)n(C)c2C)ccc1F [Example 640] | 5000 to 30000 nM | < 50 nM
Cc1nnc(C(C)NC(=O)C(=O)c2c(C)c(C(=O)Nc3ccc(F)c(C)c3)c(C)n2C)o1 (stereo not drawn) [Example 181, N-(4-fluoro-3-methylphenyl)-1,2,4-trimethyl-5-(2-((1-(5-methyl-1,3,4-oxadiazol-2-yl)ethyl)amino)-2-oxoacetyl)-1H-pyrrole-3-carboxamide] | > 30000 nM | < 50 nM
Cc1cc(NC(=O)c2c(C)c(C(=O)C(=O)NC(C)(C)CO)n3c2CCCC3)ccc1F [Example 436, N-(4-fluoro-3-methylphenyl)-3-(2-((1-hydroxy-2-methylpropan-2-yl)amino)-2-oxoacetyl)-2-methyl-5,6,7,8-tetrahydroindolizine-1-carboxamide] | > 30000 nM | 50 to 499 nM
Cc1c(C(=O)Nc2cc(F)c(F)c(F)c2)c(C)n(C)c1C(=O)C(=O)Nc1ccc(F)c(F)c1 [Example 322, 5-(2-((3,4-difluorophenyl)amino)-2-oxoacetyl)-1,2,4-trimethyl-N-(3,4,5-trifluorophenyl)-1H-pyrrole-3-carboxamide] | 5000 to 30000 nM | < 50 nM
Cc1cc(NC(=O)c2c(C)c(C(=O)C(=O)N[C@@H](C(N)=O)C(C)(C)C)n(C)c2C)ccc1F [Example 40, (R)-5-(2-((1-amino-3,3-dimethyl-1-oxobutan-2-yl)amino)-2-oxoacetyl)-N-(4-fluoro-3-methylphenyl)-1,2,4-trimethyl-1H-pyrrole-3-carboxamide] | 500 to 4990 nM | 500 to 1000 nM
Cc1cc(NC(=O)c2c(C)c(C(=O)C(=O)NCc3csc(N)n3)n(C)c2C)ccc1F [Example 111, 5-(2-(((2-aminothiazol-4-yl)methyl)amino)-2-oxoacetyl)-N-(4-fluoro-3-methylphenyl)-1,2,4-trimethyl-1H-pyrrole-3-carboxamide] | > 30000 nM | < 50 nM
Cc1c(C(=O)Nc2ccc(F)c(F)c2)c2n(c1C(=O)C(=O)Nc1ccc(B(O)O)cc1)CCCC2 [Example 738, (4-(2-(1-((3,4-difluorophenyl)carbamoyl)-2-methyl-5,6,7,8-tetrahdyroindolizin-3-yl)-2-oxoacetamido)phenyl)boronic acid] | > 30000 nM | 50 to 499 nM
Cc1cc(NC(=O)c2c(C)c(C(=O)C(=O)NC3CCN(c4ccncc4)CC3)n(C)c2C)ccc1F [Example 662, N-(4-fluoro-3-methylphenyl)-1,2,4-trimethyl-5-(2-oxo-2-((1-(pyridin-4-yl)piperidin-4-yl)amino)acetyl)-1H-pyrrole-3-carboxamide] | > 30000 nM | < 50 nM
Cc1cc(NC(=O)c2c(C)c(C(=O)C(=O)NCc3csc(N)n3)n(CCF)c2C)ccc1F [Example 229, 5-(2-(((2-aminothiazol-4-yl)methyl)amino)-2-oxoacetyl)-N-(4-fluoro-3-methylphenyl)-1-(2-fluoroethyl)-2,4-dimethyl-1H-pyrrole-3-carboxamide] | > 30000 nM | < 50 nM
Cc1cc(NC(=O)c2c(C)c(C(=O)C(=O)N[C@H](CO)[C@@H](C)O)n(CCF)c2C)ccc1F [Example 177, 5-(2-(((2R,3R)-1,3-dihydroxybutan-2-yl)amino)-2-oxoacetyl)-N-(4-fluoro-3-methylphenyl)-1-(2-fluoroethyl)-2,4-dimethyl-1H-pyrrole-3-carboxamide] | 5000 to 30000 nM | 50 to 499 nM
Cc1nc2c(s1)CCCC2NC(=O)C(=O)c1c(C)c(C(=O)Nc2ccc(F)c(C)c2)c(C)n1C (stereo not drawn) [Example 625, N-(4-fluoro-3-methylphenyl)-1,2,4-trimethyl-5-(2-((2-methyl-4,5,6,7-tetrahydrobenzo[d]thiazol-4-yl)amino)-2-oxoacetyl)-1H-pyrrole-3-carboxamide] | > 30000 nM | < 50 nM
Cc1cc(NC(=O)c2cc(C(=O)C(=O)NC(C)(C)C)n(C)c2)ccc1F [Example 1, 5-(2-(tert-butylamino)-2-oxocetyl)-N-(4-fluoro-3-methylphenyl)-1-methyl-1H-pyrrole-3-carboxamide] | > 30000 nM | < 50 nM
Cc1cc(NC(=O)c2c(C)c(C(=O)C(=O)N[C@H]3CC[C@H](O)CC3)n(C)c2C)cnc1F [Example 175, N-(6-fluoro-5-methylpyridin-3-yl)-5-(2-(((1r,4r)-4-hydroxycyclohexyl)amino)-2-oxoacetyl)-1,2,4-trimethyl-1H-pyrrole-3-carboxamide] | > 30000 nM | 50 to 499 nM

— US20190375708A1 (VenatoRx Pharmaceuticals, Inc., priority 2018, published 2019)
